Laboratory results from article PMC9414676, “Experimental Studies Indicate That ST-2223, the Antagonist of Histamine H3 and Dopamine D2/D3 Receptors, Restores Social Deficits and Neurotransmission Dysregulation in Mouse Model of Autism” (Pharmaceuticals, 2022).

Tested on: BTBR mice
Assay: Open field locomotor test (OFL), anxiety-like behavior and locomotion
Type: in vivo
Protocol: All the mice were randomly divided into nine groups of 5–7 mice each. The mice were injected intraperitonially once daily for 21 days with different doses of ST2223 (2.5, 5, and 10 mg/kg, i.p.), ARP 1 mg/kg or vehicle (1% DMSO in 0.9% normal saline). Group I, B6 mice were injected with vehicle served as control. Group II, BTBR mice were treated with vehicle. Groups III–V, BTBR mice received i.p. injections of different doses of ST2223 (2.5, 5, and 10 mg/kg, i.p.), respectively. Group VI, BTBR mice were injected with ARP (1 mg/kg, i.p.). For abrogation studies, Group VII, BTBR mice were treated with ST2223 (5 mg/kg, i.p.) along with RAM (10 mg/kg, i.p.). Group VIII, B6 mice were co-injected with vehicle and RAM (10 mg/kg, i.p). All treatments and vehicle (VEH) were administered 30–45 min before each behavioral test. The doses of these drugs were selected based on previous reports. Behavioral testing was performed between 9:00 am and 3:00 pm in an order randomized by group and in the following sequence: social approach test (SAT) and open field locomotor test (OFL). The chronic treatment started one week before the behavioral test and was continued for a total of 21 days as described above (Figure 7). Following behavioral tests, i.e., on day 21 of systemic treatment, five of the animals were sacrificed. The animals were deeply anesthetized with pentobarbital (40 mg/kg, i.p., body weight). To wash out the blood, cardiac perfusion was carried out using 0.01 M phosphate-buffered saline (PBS) at pH 7.4. The brains were quickly removed and placed on an ice plate, where the cerebellum, hippocampus, prefrontal cortex, and striatum were excised from the brain and snap-frozen in liquid nitrogen for later LC-MS/MS analysis.
Open field locomotor test (OFL) systematically assesses exploratory activity based on subjecting an animal to an unfamiliar environment whose escape is prevented by surrounding walls. It is a model of anxiety-like behavior, suitable for assessing motor activity as a reaction to an unknown environment, i.e., locomotion motivated by exploration. Both general locomotor activity and anxiety-related behaviors were assessed as the mice were placed individually inside an open field arena (45 × 45 × 30 cm) and were allowed to move freely for 10 min [80]. Mice were introduced into the center area of the arena (23 × 23 cm) and given 5 min habituation before actual behaviors recording. The overall distance moved inside the complete arena and time spent in the center and periphery was recorded for 10 min using CCD camera-assisted motion tracking equipment and software program (EthoVision 3.1, Noldus Information Technology, The Netherlands). Measurements obtained included total distance traveled and center and periphery time spent for […]. After each testing sessions, chambers we cleaned with 70% ethanol, and enough time was allowed for ethanol evaporation and odor dissipation. When evaluating the results, more time spent in the center indicated low levels of anxiety-like behaviors and total distance travelled represented locomotor activity.

[1] = ST-2223 5 mg/kg i.p. chronic, p < 0.05
[2] = ST-2223 10 mg/kg i.p. chronic, p < 0.05

For COc1ccccc1N1CCN(CCCCNC(=O)c2ccc3cc(OCCCN4CCCCC4)ccc3c2)CC1 [ST-2223, N-(4-(4-(2-methoxyphenyl)piperazin-1-yl)butyl)-6-(3-(piperidin-1-yl)propoxy)-2-naphthamide], the “time spent in the periphery” value (ST-2223 2.5 mg/kg i.p. chronic) was “no group differences”, the “time spent in the center of the open field” value (“time spent in the center” below) (ST-2223 2.5 mg/kg i.p. chronic, p = 0.84) was “failed to decrease the time spent in the center of the arena to a significant level” and the “time spent in the center” value [1] was “significantly less time in the central compartment”. For the same compound, the “time spent in the periphery” value [1] was “significantly corrected the decreased time”, the “total distance travelled vs VEH-treated BTBR mice” value [1] was “significantly decreased the total distance travelled” and the “time spent in the periphery” value (ST-2223 10 mg/kg i.p. chronic) was “no group differences”. The “time spent in the center” value [2] was “significantly less time in the central compartment” and the “total distance travelled vs VEH-treated BTBR mice” value [2] was “significantly decreased the total distance travelled”.
